{"source": "patent US9399123B2", "about": "“Silicone adhesive compositions” (Momentive Performance Materials Inc., priority 2012, dated 2016)", "assay": "DSC of drug crystals in adhesive (heat of melting, solid drug fraction)", "assay_type": "physicochemical", "method": "To further study the interaction, the drug containing samples were analyzed via DSC using a TA Instruments Differential Scanning Calorimeter. The ionic silicone and PDMS-based samples containing ibuprofen, as well as pure drug were heated from room temperature to 200° C. at a rate of 5° C./min. The drug melting point, Tm was identified at 77° C. […] This evidence of differential interactions could explain the difference in ibuprofen release through these systems (FIGS. 5(b) and (c)).\nThe difference in drug compatibility with the ionic silicone adhesive vis-á-vis the PDMS adhesive was determined via DSC as described in Example 12 above. The free drug, and drug loaded PDMS and ionic silicone adhesive were subjected to a heating and cooling cycle under air atmosphere. The DSC thermograms are show in FIG. 9(b).\nTo quantify the result and the difference in compatibility, the areas were calculated as normalized heat of melting of drug crystals present in the formulation. The values were attributed to the solid fraction of distinct drug crystals present in the formulation, and the following results were obtained: […]"}
{"smiles": "C[C@]12CC[C@H]3[C@@H](CCC4=CC(=O)CC[C@@]43C)[C@@H]1CC[C@@H]2O", "note": "[Testosterone]", "values": [{"measurement": "Heat of Melting", "setting": "DSC, normalized heat of melting of drug crystals", "value": 73, "unit": "J/gm"}, {"measurement": "% Solid drug fraction", "setting": "from heat of melting relative to free testosterone (100% assigned)", "value": 100, "unit": "%"}]}
